System: 454973-116-R2-J3-PDC spheroids, viability, % test/control
Experiment: Anticancer human tumor 454973-116-R2-J3-PDC patient-derived pancreatic carcinoma cell line growth inhibition [GQUAD]
Conditions: spheroids with HUVEC and MSC; for IC50: curve of first compound; for viability, T/C: stronger effect = lower value
How it was run: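 Viability of tumor cells grown as complex spheroids with endothelial and stromal cells, exposed to drug combinations. Top concentration at or near clinical Cmax (else 10 microM), diluted in half-log increments.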

[1] = second compound 0.0316 µM, first compound 0.0316 µM
[2] = second compound 0.0316 µM, first compound 0.316 µM
[3] = second compound 0.1 µM, first compound 0.0316 µM
[4] = second compound 0.1 µM, first compound 0.316 µM
[5] = second compound 0.316 µM, first compound 0.0316 µM
[6] = second compound 0.316 µM, first compound 0.316 µM
[7] = second compound 1 µM, first compound 0.0316 µM
[8] = second compound 1 µM, first compound 0.316 µM
[9] = second compound 3.16 µM, first compound 0.0316 µM
[10] = second compound 3.16 µM, first compound 0.316 µM
[11] = second compound 10 µM, first compound 0.0316 µM
[12] = second compound 10 µM, first compound 0.316 µM
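Note: spheroids exposed to compounds for seven days.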
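Throughout, for viability, T/C: 100% = DMSO vehicle control viability.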

Cc1cccc(N(C)C(=O)C2C(O)CCN2c2nc(C)cc(C(F)(F)F)c2C#N)c1 (centres undefined) + CN(C)c1ccc(Nc2c3ccc(NC(=O)CCN4CCCC4)cc3nc3cc(NC(=O)CCN4CCCC4)ccc23)cc1
IC50 (second compound 0.0316 µM): > 10 µM | IC50 (second compound 0.1 µM): > 10 µM | IC50 (second compound 0.316 µM): > 10 µM | IC50 (second compound 1 µM): > 10 µM | IC50 (second compound 3.16 µM): > 10 µM | IC50 (second compound 10 µM): > 10 µM | viability, T/C [1]: 106% | viability, T/C (second compound 0.0316 µM, first compound 0.1 µM): 102% | viability, T/C [2]: 103% | viability, T/C (second compound 0.0316 µM, first compound 1 µM): 98.1% | viability, T/C (second compound 0.0316 µM, first compound 3.16 µM): 109% | viability, T/C (second compound 0.0316 µM, first compound 10 µM): 100% | viability, T/C [3]: 102% | viability, T/C (second compound 0.1 µM, first compound 0.1 µM): 106% | viability, T/C [4]: 98.6% | viability, T/C (second compound 0.1 µM, first compound 1 µM): 98% | viability, T/C (second compound 0.1 µM, first compound 3.16 µM): 92.6% | viability, T/C (second compound 0.1 µM, first compound 10 µM): 105% | viability, T/C [5]: 102% | viability, T/C (second compound 0.316 µM, first compound 0.1 µM): 92.9% | viability, T/C [6]: 97.7% | viability, T/C (second compound 0.316 µM, first compound 1 µM): 103% | viability, T/C (second compound 0.316 µM, first compound 3.16 µM): 93.9% | viability, T/C (second compound 0.316 µM, first compound 10 µM): 93.8% | viability, T/C [7]: 93.4% | viability, T/C (second compound 1 µM, first compound 0.1 µM): 99.8% | viability, T/C [8]: 92% | viability, T/C (second compound 1 µM, first compound 1 µM): 77.8% | viability, T/C (second compound 1 µM, first compound 3.16 µM): 92% | viability, T/C (second compound 1 µM, first compound 10 µM): 100% | viability, T/C [9]: 92.5% | viability, T/C (second compound 3.16 µM, first compound 0.1 µM): 90% | viability, T/C [10]: 85% | viability, T/C (second compound 3.16 µM, first compound 1 µM): 70.4% | viability, T/C (second compound 3.16 µM, first compound 3.16 µM): 86.1% | viability, T/C (second compound 3.16 µM, first compound 10 µM): 84.4% | viability, T/C [11]: 74% | viability, T/C (second compound 10 µM, first compound 0.1 µM): 74.7% | viability, T/C [12]: 60.5% | viability, T/C (second compound 10 µM, first compound 1 µM): 72.4% | viability, T/C (second compound 10 µM, first compound 3.16 µM): 74.5% | viability, T/C (second compound 10 µM, first compound 10 µM): 65.1%

Cn1ncnc1[C@H]1c2n[nH]c(=O)c3cc(F)cc(c23)N[C@@H]1c1ccc(F)cc1 + CN(C)c1ccc(Nc2c3ccc(NC(=O)CCN4CCCC4)cc3nc3cc(NC(=O)CCN4CCCC4)ccc23)cc1
IC50 (second compound 0.0316 µM): > 0.316 µM | IC50 (second compound 0.1 µM): > 0.316 µM | IC50 (second compound 0.316 µM): > 0.316 µM | IC50 (second compound 1 µM): > 0.316 µM | IC50 (second compound 3.16 µM): > 0.316 µM | IC50 (second compound 10 µM): > 0.316 µM | viability, T/C (second compound 0.0316 µM, first compound 0.000999 µM): 106% | viability, T/C (second compound 0.0316 µM, first compound 0.00316 µM): 94.7% | viability, T/C (second compound 0.0316 µM, first compound 0.00999 µM): 94.2% | viability, T/C [1]: 87% | viability, T/C (second compound 0.0316 µM, first compound 0.0999 µM): 90.9% | viability, T/C [2]: 80.7% | viability, T/C (second compound 0.1 µM, first compound 0.000999 µM): 103% | viability, T/C (second compound 0.1 µM, first compound 0.00316 µM): 94% | viability, T/C (second compound 0.1 µM, first compound 0.00999 µM): 96.6% | viability, T/C [3]: 89.4% | viability, T/C (second compound 0.1 µM, first compound 0.0999 µM): 81.6% | viability, T/C [4]: 72.3% | viability, T/C (second compound 0.316 µM, first compound 0.000999 µM): 95.2% | viability, T/C (second compound 0.316 µM, first compound 0.00316 µM): 97.6% | viability, T/C (second compound 0.316 µM, first compound 0.00999 µM): 87.3% | viability, T/C [5]: 91.7% | viability, T/C (second compound 0.316 µM, first compound 0.0999 µM): 77.7% | viability, T/C [6]: 71.6% | viability, T/C (second compound 1 µM, first compound 0.000999 µM): 90% | viability, T/C (second compound 1 µM, first compound 0.00316 µM): 84.7% | viability, T/C (second compound 1 µM, first compound 0.00999 µM): 90.8% | viability, T/C [7]: 66.4% | viability, T/C (second compound 1 µM, first compound 0.0999 µM): 79.8% | viability, T/C [8]: 64.3% | viability, T/C (second compound 3.16 µM, first compound 0.000999 µM): 90.8% | viability, T/C (second compound 3.16 µM, first compound 0.00316 µM): 89.9% | viability, T/C (second compound 3.16 µM, first compound 0.00999 µM): 80.8% | viability, T/C [9]: 62.8% | viability, T/C (second compound 3.16 µM, first compound 0.0999 µM): 82% | viability, T/C [10]: 64.6% | viability, T/C (second compound 10 µM, first compound 0.000999 µM): 76.1% | viability, T/C (second compound 10 µM, first compound 0.00316 µM): 74.6% | viability, T/C (second compound 10 µM, first compound 0.00999 µM): 72.5% | viability, T/C [11]: 63.8% | viability, T/C (second compound 10 µM, first compound 0.0999 µM): 57.8% | viability, T/C [12]: 58.9%
